Assay results: patent US11026945B2, “Protein kinase RNA-like endoplasmic reticulum kinase (PERK) inhibitors for prevention and/or treatment of lung injury and/or inflammation” (THE TRUSTEES OF THE UNIVERSITY OF PENNSYLVANIA, priority 2016, dated 2021)

Legend:
[1] = tested on: integrated stress response (ISR) signaling (p-PERK, p-EIF2α, ATF4, CHOP); assay: Western blot of ISR signaling in stretched AEC-I monolayers; assay type: cell-based, rat
Text: To obtain monolayer rat type-II alveolar epithelial cells (AEC-II), cells were isolated from Sprague-Dawley rats (250-300 g, N=30 purchased from Charles River Laboratories, Wilmington, Mass.) described by Tschumperlin D J, Margulies SS. Equibiaxial deformation-induced injury of alveolar epithelial cells in vitro. Am J Physiol. 1998; 275(6 Pt 1):L1173-83. Epub 1998/12/09 (PubMed PMID: 9843855), with modifications. Briefly, animals were killed and the lungs were harvested. The lung tissue was digested with elastase at 37° C. and distal airways were isolated. Following, cells were placed on rat IgG coated containing no serum for 90 minutes to eliminate contaminating leukocytes and parenchymal cells. This isolation method yielded approximately 95% pure alveolar epithelial cell population. 1.3 million cells were plated on 1 cm diameter fibronectin-coated custom made silastic membranes. In permeability studies, biotin were mixed with fibronectin and membranes were pretreated with oxygen plasma coating to ensure homogenous distribution of the fibronectin. Cells were cultured with 10% fetal bovine serum (FBS)-containing Minimal Essential Medium (MEM) containing low dose antibiotics for 3 days. 32 to 40 monolayers were per rat. […] RNAiMax transfection reagent treatment using serum free media (Opti-MEM, Thermo Fisher Scientific, Waltham, Mass.). This is a negative control for siRNA experiments where serum free media is used for improved transfection efficiency; • B. non-targeting siRNA treatment ([…], Dharmacon) serves a negative control for transfection; • C. 0.5 μg siRNA treatment targeting PERK; • D. 0.5 μg siRNA treatment targeting ATF4; • E. 0.5 μg siRNA treatment targeting CHOP; • F. vehicle control (DMSO) for PI; and • G. 1 μM PI treatment.
The dose of siRNA and PI treatment was selected based on dose-response curves above (FIG. 2A-FIG. 2E). AEC-II transformed to AEC-I cells and formed a complete monolayer by day 4, expressing only AEC-I cell surface markers. On the day of the experiment, the medium was removed and replaced with HEPES-buffered MEM. Cells stretch was performed in a 37° C. incubator. The effect of ISR inhibition or control treatment was compared in the following three conditions (N=5 biological replicates/condition): 1) no stretch (NS) controls; 2) mechanical stretch with 12% surface change (S 12%); and 3) mechanical stretch with 25% surface change (S25%). The cell monolayers were exposed to the above mentioned conditions for 6 hours based on time course of ISR protein expression obtained during preliminary data collection (FIG. 2A-FIG. 2E). All membranes were treated with FITC-labeled streptavidin (Thermo Fisher Scientific) at the end of the experiment and light emission was detected at 488 nm with fluorescent microscopy (Nikon TE300, Melville, N.Y.). In a separate set of experiments (N=30 rats), in which the above mentioned treatment plan and conditions were used, cells were harvested at the end of the experiment by scraping them in RIPA buffer and total protein was extracted (N=3 membranes/treatment group performed for N=5 biological replicates per condition). Co-immunoprecipitation (IP) assays were performed using 5 μg of ZO-1 protein as bait (IP kit, Thermo Fisher Scientific). Following co-IP, immunoblotting was performed for ZO-1, OCLN and CLDN proteins 4, 7 and 18 (Invitrogen, Carlsbad, Calif.).
Rats (N=106) were euthanized with an overdose of sodium pentobarbital (55 mg/kg). The chest was shaved and cleaned with Wexcide. Tracheostomy was performed, and a 14 gauge (G) metal cannula was inserted in the trachea lumen. The animals were connected to a rodent ventilator (Harvard Apparatus Model 640, Holliston, Mass.). Subsequently, the chest and abdomen were opened by a midline incision, and the aorta was transected causing exsanguination. […]

AEC-I monolayers = assay: Cytokine levels in culture supernatant, multiplex bead assay; assay type: cell-based, rat; conditions: stretched monolayers, PI treatment
Procedure: Given the interest in cytokines as a biomarker of injury, the contribution of ISR signaling to stretch-induced proinflammatory mediator release was assessed by measuring the level of 26 common cytokines in the culture media in the presence and absence of PI. Generally low cytokine response to stretch was found with modest elevations in IL-18, IL-1α and MIP-1α (FIG. 4A-FIG. 4C). […] (FIG. 4A). To study the regulation of IL-18 by ISR, stretched and unstretched cells were treated with CHOP, ATF4 and PERK siRNA (FIG. 17A-FIG. 17B and FIG. 4D-FIG. 4F). […] Cell culture media IL-18 levels were compared to no siRNA and non-targeting siRNA treatments.
Culture media of stretched and unstretched AEC-I monolayers was collected at the end of the experiment. N=5 biological monolayer replicates were used per condition. 0.5 ml samples were concentrated to 30 μl using centrifugal filters (Amicon Ultra, EMD Millipore). Levels of 26 common cytokines and chemokines were measured with RECYTMAG-65K MILLIPLEX MAP Rat Cytokine Chemokine Magnetic Bead Panel multiplex bead assay (EMD Millipore Corp., Billerica, Mass.) in triplicates per the manufacturer's protocol. 25 μl samples were used. The following analytes were measured: epidermal growth factor (EGF), eotaxin, macrophage colony stimulating factor […], interleukin (IL)-1α, 2,4,5,6,10,12 (p70), 13, 17A, 18; granulocyte-macrophage colony stimulating factor (GM-CSF), regulated on activation, normal T cell expressed and secreted (RANTES), vascular […] growth factor (VEGF), fractalkine, interferon-γ (INFγ), interferon-γ-inducible protein 10 (IP-10), leptin, tumor necrosis factor-α (TNF-α), keratinocyte chemoattractant (GRO/KC), macrophage inflammatory protein (MIP)-1α and 2, monocyte chemoattractant protein (MCP-1), and LPS-induced chemokine (LIX). Samples were read in triplicates and an averaged value was obtained.

[2] = stretched AEC-I monolayers, 1 μM PI, 24 hours pretreatment
[3] = unstretched monolayers, 1 μM PI for 18 hours

SMILES: Cn1cc(-c2ccc3c(c2)CCN3C(=O)Cc2cccc(C(F)(F)F)c2)c2c(N)ncnc21 [PI, 1-[5-(4-Amino-7-methyl-7H-pyrrolo[2,3-d]pyrimidin-5-yl)indolin-1-yl]-2-(3-trifluoromethylphenyl)ethanone]
- ATF4 [1, 2]: decreased
- CHOP [1, 2]: decreased
- p-EIF2α [1, 2]: decreased
- p-PERK [1, 2]: decreased
- Level of ATF4 [1, 3]: unaffected
- Level of CHOP [1, 3]: unaffected
- Level of p-EIF2α [1, 3]: unaffected
- Level of p-PERK [1, 3]: unaffected
- IL-1α level in supernatant (AEC-I monolayers): did not affect
- IL-18 level in supernatant (AEC-I monolayers): decreased
- MIP-1α level in supernatant (AEC-I monolayers): did not affect
